Consider one compound from patent US20230399298A1 (priority 2020, published 2023).

Data set [1] is described as follows: Raw material accelerated stability comparison test (40° C., RH 75%, light-shielding seal, HPLC). It is filed as physicochemical. The protocol: (§1) The HPLC conditions used in the present disclosure were as follows, and the purity of donepezil ether palmitate hydrochloride was measured. • 1) detector: ultraviolet absorption photometer (measurement wavelength: 276 nm) • 2) column: YMC-Pack Pro C18 (4.6×250 mm, 5 μm) • 3) mobile phase A: Solution obtained by dissolving 1.88 g of sodium 1-hexanesulfonate in 1000 mL of purified water, and then adding 1.0 mL of phosphoric acid thereto, wherein each amount of reaction substances was accurately weighed. • 4) mobile phase B: acetonitrile
accelerated stability over time of donepezil ether palmitate (DEP) and donepezil ether palmitate hydrochloride (DEP HCl).
Specifically, in the experiments, each compound was stored in a light-shielding seal under accelerated conditions (40° C., RH 75%), and the chemical stability thereof was analyzed by HPLC (purity and increased amount of related substances).

A short description of data set [2]: Raw material harsh stability comparison test (60° C., HPLC). The class given is physicochemical. The protocol: as §1
Experiments were conducted to evaluate the raw material harsh stability over time of donepezil ether palmitate (DEP) and donepezil ether palmitate hydrochloride (DEP HCl).
Specifically, in the experiments, each compound was stored under a condition of 60° C., and the chemical stability thereof was analyzed by HPLC (purity and increased amount of related substances).

Data set [3] can be described thus: Formulation stability comparison test (suspension in benzyl benzoate and castor oil, 60° C. and 80° C., HPLC). The class given is physicochemical. As to the method:
as §1
Experiments were conducted to evaluate the formulation stability over time of donepezil ether palmitate (DEP) and donepezil ether palmitate hydrochloride (DEP HCl).
Specifically, each of DEP and DEP HCl was mixed with benzyl benzoate and castor oil to prepare a suspension, and then stored at 60° C. and 80° C. The chemical stability was analyzed by HPLC (purity and increased amount of related substances), and results thereof are shown in Table 4.

The melting point is the temperature, or range, at which the solid turns liquid. Compound `CCCCCCCCCCCCCCOCC(=O)OC1=C(CC2CCN(Cc3ccccc3)CC2)Cc2cc(OC)c(OC)cc21` [DEP, 2-((1-benzylpiperidin-4-yl)methyl)-5,6-dimethoxy-1H-inden-3-yl 2-(tetradecyloxy)acetate] yielded a melting point of 55.1 °C. Moreover, in data set [1] (6th month versus initial), the “purity decreased by” value was “about 2.47%”. Moreover, in data set [1] (Initial), the PT impurity came out at 0.02% and the Purity is given as 99.22%. In data set [1] (Month 1), this compound registered a PT impurity of 0.04% and a Purity of 99.05%. Also, in data set [1] (Month 3), the PT impurity is 0.08% and the Purity worked out at 98.65%. In data set [1] (Month 6), this compound registered a PT impurity of 0.13% and a Purity of 96.75%. In addition, the “purity decreased by” value in data set [2] (2nd week versus initial) is reported as “about 18.60%”. Moreover, in data set [2] (Day 1), the PT impurity came to 1.61% and the Purity is on record as 95.44%. In data set [2] (Day 3), this compound came in with a PT impurity of 3.33% and a Purity of 92.05%. In data set [2] (Initial), this compound registered a Purity of 99.76%. In data set [2] (Week 2), the PT impurity was found to be 4.39% and the Purity stood at 81.16%. In data set [3] (Day 1 at 80° C.), this compound showed a Purity of 97.96%. The compound also yielded a Purity in data set [3] (Initial) of 99.79%. The same compound showed a Purity in data set [3] (Week 1 at 60° C.) of 97.54%.
